Assay results: patent publication US20090124643A1, “Use of a Cannabinoid CB1 Receptor Antagonist for Preparation of Drugs Useful for the Prevention and Treatment of Benign Prostatic Hypertrophy” (SANOFI-AVENTIS, priority 2006, published 2009)

Columns and labels:
[1] = tested on: BPH in spontaneously hypertensive rats; test: Treatment of BPH in spontaneously hypertensive rats (SHR), qualitative histological study of the prostate lobes; type: in vivo, rat; conditions: SHR rats treated for 28 days, from 10 mg/kg onward
Protocol: Treatment of BPH in Spontaneously Hypertensive Rats
The spontaneously hypertensive rat (SHR) model as described by Golomb et al., J. Androl. (2000), 21(1), 58-64 and Matituahou et al., J. Androl. (2003) 24(2), 263-9 is used.
A qualitative histological study of the prostate lobes is carried out on untreated SHR rats and on rats treated for 28 days with 10 mg/kg or 30 mg/kg of rimonabant.

testosterone-induced BPH = test: Treatment of testosterone-induced BPH in rats; type: in vivo, rat; conditions: for Decrease in volume of total prostate / Decrease in volume of ventral prostate / Decrease in weight of total prostate / Decrease in weight of ventral prostate: % of the increase preinduced with testosterone
Protocol: Treatment of Testosterone-Induced BPH in Rats
Male rats are implanted with catheters and receive 18.75 mg per rat of testosterone, subcutaneously at D-4.
From day D0 to day D21, they receive rimonabant daily, at the dose of either 10 mg/kg per os, or of 30 mg/kg per os.
At day D22, the animals are sacrificed and their prostate is analyzed.
This decrease is evaluated as % of the increase preinduced with testosterone.

[2] = rimonabant 10 mg/kg/d per os, D0 to D21
[3] = rimonabant 30 mg/kg/d per os, D0 to D21

SMILES	Histology of the ventral prostate lobes [1]	Weight and volume of the prostate (testosterone-induced BPH; chronic treatment with rimonabant, 10 or 30 mg/kg per os daily, D0 to D21)	Decrease in volume of total prostate (testosterone-induced BPH; [2]) [%]	Decrease in volume of ventral prostate (testosterone-induced BPH; [2]) [%]	Decrease in weight of total prostate (testosterone-induced BPH; [2]) [%]	Decrease in weight of ventral prostate (testosterone-induced BPH; [2]) [%]	Decrease in volume of total prostate (testosterone-induced BPH; [3]) [%]	Decrease in volume of ventral prostate (testosterone-induced BPH; [3]) [%]	Decrease in weight of total prostate (testosterone-induced BPH; [3]) [%]	Decrease in weight of ventral prostate (testosterone-induced BPH; [3]) [%]	Increase in weight and volume of the total prostate and of the ventral prostate (testosterone-induced BPH; pretreatment with testosterone 18.75 mg per rat, subcutaneously at D-4)
Cc1c(C(=O)NN2CCCCC2)nn(-c2ccc(Cl)cc2Cl)c1-c1ccc(Cl)cc1 [Rimonabant, N-piperidino-5-(4-chlorophenyl)-1-(2,4-dichlorophenyl)-4-methylpyrazole-3-carboxamide]	the tissues are normal and non-hypertrophied	significant decrease	64	88	54	87	87	100	73	95	
C[C@]12CC[C@H]3[C@@H](CCC4=CC(=O)CC[C@@]43C)[C@@H]1CC[C@@H]2O [testosterone]											approximately 35%
